Experimental data: US20170298402A1, “SELF-LABELING NUCLEIC ACIDS AND METHODS OF USE” (President and Fellows of Harvard College, priority 2014, published 2017)

System: post-round 6 RNA pool
Experiment: Streptavidin gel mobility shift of post-round 6 RNA pool with each electrophilic probe
Format: biochemical
Conditions: streptavidin incubation and gel mobility shift
Method: The reaction between small-molecule probe(s) and the RNA pool was performed as follows: the RNA pool (1 μM) in buffer containing 150 mM NaCl, 25 mM Na-HEPES, pH 7.4, was heated at 65° C. for 5 minutes, then allowed to cool for an additional 5 minutes. MgCl2 (10 mM) was then added for a total volume of 45 μL and the solution incubated for 10 minutes, followed by addition of 1.3 mM of the biotinylated small-molecule probe in DMSO. After incubation for the desired time, the RNA was precipitated by the addition of 5 μL of 3 M NaOAc and 180 μL of EtOH.
The pellet resulting from EtOH precipitation of a reaction of RNA (750 ng) with a small-molecule probe was resuspended in 21 μL H2O. The RNA (7 μL) and streptavidin (NEB; 1 μg) were incubated at room temperature for 25 minutes and then combined with gel electrophoresis loading buffer. The sample was electrophoresed on a 10% PAGE denaturing gel (240 V, 35 minutes) and visualized following incubation with SYBR Green II (Life Technologies).
To identify the electrophile(s) that reacted with the enriched RNA, we performed one additional round of in vitro selection and then incubated the resulting post-round 6 RNA pool with each of the eight electrophilic probes.

CC1O[C@H]1CCCOCCOC(=O)CCCCC1SCC2NC(=O)NC21 (stereo partly shown) [probe 1]
reaction with the post-round 6 RNA pool: reacted
